Experimental data from patent US7214669B2, “Tetracycline derivatives and methods of use thereof” (Tetragenex Pharmaceuticals, Inc., priority 2001, dated 2007).
Where “and” joins values, the source holds several entries; their conditions need not be identical. Equal entries are not always repeated.

How the values were obtained:
[1] = Dunning MAT LyLu tumor model, weekly body weight; assay type: in vivo; conditions: compared to the control group
Method: (§2) Fresh dosing solutions containing 10 mg/ml of each test article in 2% carboxymethylcellulose were prepared daily and used in the testing.
(§3) Three groups of animals (10/group) were dosed by gavage with either vehicle, or one of the two analogs daily for three weeks, and then three times per week until death or sacrifice. Dosing was begun seven days prior to implantation of the MAT LyLu tumor cells by tail vein injection. Approximately 0.1 ml of tumor cell suspension was injected into one of the lateral tail veins. The dose to be chosen was based on two factors: (1) efficacy and (2) morbidity associated with the analog, if any.

Human recombinant MMP9 = Human recombinant MMP9 (Homo sapiens, UniProt P14780); assay: MMP9 (Gelatinase B) inhibition, 14C gelatin release; assay type: biochemical; conditions: 37° C., 16 hours; read-out: MMP-9 inhibitory activity, IC50
Chain of Human recombinant MMP9 (P14780 94-707): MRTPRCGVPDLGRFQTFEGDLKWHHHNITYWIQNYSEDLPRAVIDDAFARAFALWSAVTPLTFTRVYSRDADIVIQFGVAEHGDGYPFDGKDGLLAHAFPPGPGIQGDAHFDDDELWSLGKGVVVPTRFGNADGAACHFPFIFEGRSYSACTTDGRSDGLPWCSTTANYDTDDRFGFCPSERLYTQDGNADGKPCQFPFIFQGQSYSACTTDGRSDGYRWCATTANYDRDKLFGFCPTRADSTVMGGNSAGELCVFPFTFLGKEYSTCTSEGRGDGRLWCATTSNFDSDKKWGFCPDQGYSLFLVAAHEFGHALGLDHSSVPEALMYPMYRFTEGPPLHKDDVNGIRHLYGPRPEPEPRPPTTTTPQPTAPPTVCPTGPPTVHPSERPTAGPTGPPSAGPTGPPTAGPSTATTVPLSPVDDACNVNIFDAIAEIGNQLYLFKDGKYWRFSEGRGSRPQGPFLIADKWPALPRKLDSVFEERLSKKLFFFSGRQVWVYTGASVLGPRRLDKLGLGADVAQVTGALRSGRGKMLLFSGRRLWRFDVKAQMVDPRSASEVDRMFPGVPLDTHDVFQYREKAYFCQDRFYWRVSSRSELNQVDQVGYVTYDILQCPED

Human recombinant MMP7 = biological target: T1, Human recombinant MMP7 (Homo sapiens, UniProt P09237); assay: MMP7 (Matrilysin) inhibition, 14C casein release; assay type: biochemical; conditions: 37° C., 16 hours; read-out: MMP-7 inhibitory activity, IC50
T1 sequence (P09237 95-267): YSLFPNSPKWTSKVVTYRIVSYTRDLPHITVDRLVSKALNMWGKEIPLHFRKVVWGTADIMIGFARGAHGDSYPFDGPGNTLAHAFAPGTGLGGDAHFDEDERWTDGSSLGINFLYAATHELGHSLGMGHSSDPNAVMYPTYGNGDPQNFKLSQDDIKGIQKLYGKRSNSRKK
Method: MMP7 activity was determined by the release of trichloracetic acid, TCA, soluble fragments from ^14C acetylated β casein (Sigma) as described in Methods in Enzymology 248, 451 (1995).
• 100 μg ^14C casein (7000 dpm) • 50 mM Tris HCl, pH 7.9 • 15 mM CaCl2, 0.02% azide • Human recombinant MMP7, 1.5 nM • ±tetracycline (up to 1 mM) in a total volume of 250 μl.
Incubations were at 37° C. for 16 hours. The incubation was stopped by the addition of 500 μl cold 18% TCA and standing on ice for 15 minutes. TCA precipitates were removed by centrifugation at 10,000 g for 10 minutes at 4° C., and 200 μl supernatant was taken for scintillation counting. Only data derived from within the linear part of the assay (10–60% lysis) were utilized. The percentage inhibition of MMP7 by each concentration of the candidate tetracycline were plotted to derive the IC50 value.

Human recombinant MMP3 = Human recombinant MMP3 (Homo sapiens, UniProt P08254); assay: MMP3 (Stromelysin 1) inhibition, 14C casein release; assay type: biochemical; conditions: 37° C., 16 hours; read-out: MMP-3 inhibitory activity, IC50
Chain of Human recombinant MMP3 (P08254 100-477): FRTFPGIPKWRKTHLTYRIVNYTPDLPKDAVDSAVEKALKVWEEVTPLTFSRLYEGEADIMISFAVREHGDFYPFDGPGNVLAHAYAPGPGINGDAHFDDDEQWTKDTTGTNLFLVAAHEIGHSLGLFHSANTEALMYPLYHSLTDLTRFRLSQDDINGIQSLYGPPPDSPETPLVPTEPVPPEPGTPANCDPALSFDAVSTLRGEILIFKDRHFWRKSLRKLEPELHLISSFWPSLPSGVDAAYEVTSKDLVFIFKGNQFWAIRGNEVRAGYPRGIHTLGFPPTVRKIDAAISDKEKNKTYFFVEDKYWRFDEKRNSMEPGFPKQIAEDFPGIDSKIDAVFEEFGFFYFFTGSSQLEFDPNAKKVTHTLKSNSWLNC

Human recombinant MMP1 = biological target: T2, Human recombinant MMP1 (Homo sapiens, UniProt P03956); assay: MMP1 (Collagenase-1) inhibition, 14C collagen release; assay type: biochemical; conditions: 35° C., 5 hours; read-out: MMP-1 inhibitory activity, IC50
T2 sequence (P03956 100-469): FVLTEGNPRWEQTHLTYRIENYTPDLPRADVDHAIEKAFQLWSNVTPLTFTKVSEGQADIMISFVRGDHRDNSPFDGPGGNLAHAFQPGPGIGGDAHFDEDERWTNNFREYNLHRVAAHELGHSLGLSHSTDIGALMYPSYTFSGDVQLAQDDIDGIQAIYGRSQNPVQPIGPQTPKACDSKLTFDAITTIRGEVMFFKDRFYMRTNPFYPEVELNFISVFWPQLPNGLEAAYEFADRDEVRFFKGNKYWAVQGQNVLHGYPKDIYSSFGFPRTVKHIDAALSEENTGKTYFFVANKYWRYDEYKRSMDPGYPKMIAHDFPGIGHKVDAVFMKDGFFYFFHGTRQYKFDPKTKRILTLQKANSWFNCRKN

Human recombinant MMP14 = Human recombinant MMP14 (Homo sapiens, UniProt P50281); assay: MMP14 (MTI-MMP) inhibition, 14C collagen release; assay type: biochemical; conditions: 35° C., 15 hours; read-out: MMP-14 inhibitory activity, IC50
MMP2 (Gelatinase A) = biological target: T3, MMP2 (Gelatinase A) (Homo sapiens, UniProt P08253); assay: MMP2 (Gelatinase A) inhibition, 14C gelatin release; assay type: biochemical; conditions: 37° C., 16 hours; read-out: MMP-2 inhibitory activity, IC50
T3 sequence (P08253 110-660): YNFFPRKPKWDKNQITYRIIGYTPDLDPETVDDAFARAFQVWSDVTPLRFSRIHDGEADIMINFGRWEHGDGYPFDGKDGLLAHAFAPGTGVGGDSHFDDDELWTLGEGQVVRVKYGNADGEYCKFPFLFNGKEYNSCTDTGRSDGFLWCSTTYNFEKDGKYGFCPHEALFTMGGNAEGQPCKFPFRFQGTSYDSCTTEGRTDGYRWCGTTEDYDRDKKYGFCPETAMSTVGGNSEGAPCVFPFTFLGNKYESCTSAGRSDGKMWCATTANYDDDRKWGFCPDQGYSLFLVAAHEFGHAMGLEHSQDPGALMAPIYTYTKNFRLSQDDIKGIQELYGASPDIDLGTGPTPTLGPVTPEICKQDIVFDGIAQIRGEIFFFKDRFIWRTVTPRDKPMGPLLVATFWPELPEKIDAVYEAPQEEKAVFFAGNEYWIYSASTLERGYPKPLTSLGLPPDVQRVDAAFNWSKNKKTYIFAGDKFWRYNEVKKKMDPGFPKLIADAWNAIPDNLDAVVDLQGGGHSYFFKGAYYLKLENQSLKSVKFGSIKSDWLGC
Method: Protocol for Measuring MMP2 (Gelatinase A) Inhibition
MMP2 activity was determined by the release of trichloracetic acid, TCA, soluble fragments from ^14C acetylated rat skin type I gelatin (Methods in Enzymology 248, 470, 1995. Biochem. J. 195, 1981)
• 100 μg ^14C labelled gelatin (type I collagen denatured 60° C. 20 min) • 50 mM Tris HCl pH 7.9 • 15 mM CaCl2, 0.02% azide • Human recombinant MMP1, 0.1–0.5 nM • ±Tetracycline (up to 1 MM) in a total volume of 250 μl.
Incubations were set at 37° C. for 16 hours. The reaction was stopped by cooling the incubations and addition of 50 μl cold 90% (w/v) trichloracetic acid with careful mixing. TCA precipitation was allowed to proceed for 15 minutes at 4° C. prior to cetrifugation at 10,000 g for 10 minutes at 4° C. 200 μl of the TCA supernatant was taken for the determination of radioactive content by scintillation counting (Packard Opti Phase Supermix scintillation fluid). Only data derived from within the linear part of the assay (10–70% lysis) were utilized. The percentage inhibition of MMP2 by each tetracycline concentration was plotted to derive the IC50 value, using linear regression analysis.

[2] = system: Arp-1 human myeloma cancer cells; assay: Membrane Invasion Culture System (MICS) chemo-invasion assay; assay type: cell-based; conditions: 24 hours, + = increased invasiveness
Outline: (§1)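 Fifty thousand cells were seeded above a 35 μm laminin/collagen IV/gelatin barrier on a 10 μm-pore filter, with serum-free RPMI plus 50% fibroblast-conditioned medium below as chemoattractant. Compound at 1, 10 or 25 μg/ml, or DMSO vehicle, was present for 24 h. Invaded cells were collected, Wright-stained and counted over 5 fields.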

[3] = system: Ark human myeloma cancer cells; assay: as above; assay type: cell-based; conditions: 1 ug/mL; 24 hours; + = increased invasiveness
Outline: as §1

[4] = system: MDA-MB-231 human breast cancer cells; assay: as above; assay type: cell-based; conditions: 10 ug/mL; 24 hours; + = increased invasiveness
Outline: as §1

[5] = system: C8161 human melanoma cells; assay: as above; assay type: cell-based; conditions: 25 ug/mL; 24 hours; + = increased invasiveness
Outline: as §1

[6] = system: RPMI-8226 human myeloma cancer cells; assay: as above; assay type: cell-based; conditions: 24 hours, + = increased invasiveness
Outline: as §1

[7] = system: PC-3 ML human prostate cancer cells; assay: as above; assay type: cell-based; conditions: 10 ug/mL; 24 hours; + = increased invasiveness
Outline: as §1

MAT LyLu tumor = assay: Dunning MAT LyLu tumor model, survival; assay type: in vivo, Copenhagen rats; conditions: for Surviving Number: 10/group, dosed by gavage
Method: as §2, §3

SMILES: CC1c2ccc([N+](=O)[O-])c(O)c2C(=O)C2=C(O)C3(O)C(=O)C(C(N)=O)=C(O)C(N(C)C)C3C(O)C21 (centres unmarked) [Compound 1, 9-nitro-6-deoxy-5-hydroxytetracycline H2SO4]
- body weight changes [1]: indistinguishable body weight changes
- IC50 (Human recombinant MMP9): 43 µM
- IC50 (Human recombinant MMP7): 815 µM
- IC50 (Human recombinant MMP3): 258 µM
- IC50 (Human recombinant MMP1): 267 µM
- IC50 (Human recombinant MMP14): 86 µM
- IC50 (MMP2 (Gelatinase A)): > 700 µM
- percent inhibition, ARP-1 ([2]; 1 ug/mL): +9%
- percent inhibition, ARP-1 ([2]; 10 ug/mL): +13%
- percent inhibition, ARP-1 ([2]; 25 ug/mL): 1%
- percent inhibition, ARK [3]: 9% and 13%
- percent inhibition, MDA-MB-231 (Breast) [4]: 20^B percent and 25^B percent
- percent inhibition, C8161 (Melanoma) [5]: 35^B percent and 56^B percent
- percent inhibition, RPMI-8226 (Multiple Myeloma) ([6]; 1 ug/mL): 20% and 21^B percent
- percent inhibition, RPMI-8226 (Multiple Myeloma) ([6]; 25 ug/mL): 15% and 29^B percent
- percent inhibition, PC-3 ML (Prostrate) [7]: 47^B percent and 24^B percent
- Surviving Number (MAT LyLu tumor; 14 days post tumor implantation): 8
- Surviving Number (MAT LyLu tumor; 17 days post tumor implantation): 8
- Surviving Number (MAT LyLu tumor; 24 days post tumor implantation): 8
- Surviving Number (MAT LyLu tumor; 27 days post tumor implantation): 8
- Surviving Number (MAT LyLu tumor; 28 days post tumor implantation): 8
- Surviving Number (MAT LyLu tumor; 29 days post tumor implantation): 6
- Surviving Number (MAT LyLu tumor; 30 days post tumor implantation): 4
- Surviving Number (MAT LyLu tumor; 34 days post tumor implantation): 4
- Surviving Number (MAT LyLu tumor; 42 days post tumor implantation): 4
- surviving number after tumor implantation (in words) (MAT LyLu tumor; compared to the control group): marked increase in surviving number
